Data: patent publication US20250338851A1, “Boosted IPBC for Wet-State Bacterial Control” (Troy Technology II, Inc., priority 2021, published 2025)
“And” between values parts separate entries of the source, which are not always exact repeats. Identical values can stand only once. Like-named read-outs stand apart in the source and are kept apart here.

What was measured:
Assay type in all cases: cell-based
[1] = system: bacterial consortium: Alcaligenes faecalis, Enterobacter aerogenes, Escherichia coli, Pseudomonas aeruginosa, Staphylococcus aureus, Microbacterium …; experiment: Bacterial challenge testing (industrial strength); details: Interior Paint #1; lowest concentration free of detectable bacterial growth 7 days following the 4th inoculation
Description: Where industrial strength inoculations are indicated, bacterial challenge testing organisms were Alcaligenes faecalis (ATCC #25094), Enterobacter aerogenes (ATCC #13048), Escherichia coli (ATCC #11229), Pseudomonas aeruginosa (ATCC #10145), Staphylococcus aureus (ATCC #6538), Microbacterium paraoxydans (Troy Isolate), Burkholderia cenocepacia (Troy Isolate), Citrobacter werkmanii (Troy Isolate), and Acinetobacter sp. (Troy Isolate). All bacteria were blended from separate overnight cultures grown in Tryptic Soy Broth (TSB) and mixed at equal CFU via OD600 measurements, then diluted to OD600=7 (˜10^9 CFU/mL) to create the final bacterial consortium. Each mixture was prepared shortly before each inoculation. Inoculations were performed by adding […] to 50 g of the indicated test sample to give ˜10^7 CFU/g per inoculation. Viability readings were performed at the indicated intervals following each challenge by applying a small amount of the test sample onto PCA. Plates were then incubated at 32° C. for 3-5 days before being evaluated with a semi-quantitative scale. This scale estimates the approximate CFU/g by visual assessment of the colony density along the streak lines. Readings are recorded as the average of two duplicate semi-quantitative readings from “0” to “4.” Samples were mixed before every viability reading and after every inoculation.
(§1) Challenge test scoring was done by the weighted sum of squares for each of the twelve data points collected for each test sample. The weighting was done proportional to the streak day, with day 1 weighted at 10%, day 2 weighted at 20%, and day 3 weighted at 70%. The sum of all 12 values is then taken and divided by the score of the unprotected sample to achieve the total growth score. The reported “weighted performance” score is 1 minus the growth score.

[2] = system: Pseudomonas sp. Troy JZ103; experiment: Minimum inhibitory concentration testing (microbroth dilution) and synergy index; details: 96 well microbroth dilution, MHB, 24 hours of incubation
Method: (§2) MICs were determined via microbroth dilution using the following specific test parameters:
(§3) Biocide dilutions were performed in 2-fold increments for each assay.
(§4) Synergy index (SI) scores were calculated according to the mass action equation below: […]
(§5) S.I.[MIC[A]in-blend/MIC[A]alone]+[MIC[B]in-blend/MIC[B]alone]
(§6) Combinations of ingredients were determined to be synergistic (S.I.<0.5), additive (S.I.>0.5 to 1), indifferent (S.I.>1 to <2) or antagonistic (S.I.>2), as defined by EUCAST guidelines. See European Committee for Antimicrobial Susceptibility Testing (EUCAST) of the European Society of Clinical Microbiology and Infectious Diseases (ESCMID). EUCAST Definitive Document E.Def 1.2, May 2000: Terminology relating to methods for the determination of susceptibility of bacteria to antimicrobial agents, Clin. Microbiol. Infect. Off Publ. Eur. Soc. Clin. Microbiol. Infect. Dis. […] Microbiol.

E. aerogenes ATCC #13048 = experiment: as above; details: Klebsiella aerogenes, ATCC13048; 96 well microbroth dilution, MHB, 24 hours of incubation; read-out: MIC
Method: as §2, §3, §4, §5, §6

[3] = system: Microbacterium sp. Troy JZ13; experiment: as above; details: 96 well microbroth dilution, MHB, 24 hours of incubation
Method: as §2, §3, §4, §5, §6

S. aureus ATCC #6538 = experiment: as above; details: 96 well microbroth dilution, MHB, 24 hours of incubation
Method: as §2, §3, §4, §5, §6

[4] = system: P. aeruginosa ATCC #10145; experiment: as above
Method: as §2, §3, §4, §5, §6

E. coli ATCC #11229 = experiment: as above; details: 96 well microbroth dilution, MHB, 24 hours of incubation
Method: as §2, §3, §4, §5, §6

[5] = system: Burkholderia sp. Troy JZ2; experiment: as above
Method: as §2
(§7) Necessary organism dilutions via OD600 were calculated based on OD600 of 1.0 being equivalent to 8×10^8 CFU/mL. Biocide dilutions were performed in 2-fold increments for each assay.
as §4, §5
(§8) Combinations of ingredients were determined to be synergistic (S.I.<0.5), additive (S.I.>0.5 to 1), indifferent (S.I.>1 to <2) or antagonistic (S.I.>2), as defined by EUCAST guidelines. See European Committee for Antimicrobial Susceptibility Testing (EUCAST) of the European Society of Clinical Microbiology and Infectious Diseases (ESCMID). EUCAST Definitive Document E.Def 1.2, May 2000: Terminology relating to methods for the determination of susceptibility of bacteria to antimicrobial agents, Clin. Microbiol. Infect. Off Publ. Eur. Soc. Clin. Microbiol. Infect. Dis. 6, 503-508 (2000); Helander I. M., Mattila-Sandholm T., Fluorometric assessment of gram-negative bacterial permeabilization, J. Appl. Microbiol. 88:213-219 (2000).

Bacillus sp. Troy JZ14 = experiment: as above; details: 96 well microbroth dilution, MHB, 24 hours of incubation
Method: as §2, §7, §4, §5, §8

[6] = system: bacterial consortium: Alcaligenes faecalis (ATCC #25094), Enterobacter aerogenes (ATCC #13048), Escherichia coli (ATCC #11229), Pseudomonas aeruginosa (ATCC …); experiment: Bacterial challenge testing (standard)
Method: Bacterial and fungal challenge testing was performed following Troy's standard challenge test procedure SOP MI-07. […] Where indicated, additional bacterial organisms were added to the inoculum such that each organism in the inoculum provided equal CFU. […] Fungal consortia were prepared on Malt Agar slants and diluted to 10^6 spores/mL using a hemocytometer to count before use. Each mixture was prepared shortly before each inoculation. Inoculations were performed by adding 0.5 mL to 50 g of the indicated test sample, giving either ˜10^6 CFU/g of bacteria or ˜10^4 spores/g of fungi per challenge. Viability readings were performed at the indicated intervals following each challenge by applying a small amount of the test sample onto PCA (for bacteria) or Malt Agar (for fungus). Bacterial plates were then incubated at 32° C. for 3-5 days, and Malt Agar plates were incubated for 1 week at 28° C. before reading. Viability plates were evaluated with a semi-quantitative scale. This scale estimates the approximate CFU/g by visual assessment of the colony density along the streak lines. Readings are recorded as the average of two duplicate semi-quantitative readings from “0” to “4.” Samples were mixed before every viability reading and after every inoculation.
as §1

[7] = system: Pseudomonas aeruginosa (ATCC #10145); experiment: Kill curve; details: for Kill curve CFU/mL: 0.2%
Method: Overnight cultures of Pseudomonas aeruginosa (ATCC #10145) growing in Tryptic Soy Broth were diluted to OD600=0.7 in Mueller Hinton Broth containing the indicated level of test compound. Samples containing IPBC were dosed with Polyphase PW40 (40% IPBC). Samples containing ZnO were dosed from a 50% ZnO dispersion (“1678-54”). Time points were collected by adding 1 mL of the sample into 9 mL of Dey-Engley Neutralizing Broth and performing a serial dilution in 1× Butterfield's Phosphate Buffer. Counts were obtained from pour plates in Tryptic Soy Agar after overnight incubation at 35° C.

[8] = system: Pseudomonas aeruginosa (ATCC #10145); experiment: NPN uptake assay (membrane permeability); details: 1% w/v solutions
Method: The NPN uptake assay was performed roughly as previously described. See Helander I. M., Mattila-Sandholm T., Fluorometric assessment of gram-negative bacterial permeabilization, J. Appl. Microbiol. […] Next, the cells were centrifuged (10,000 g, 5 minutes) washed twice with assay buffer (5 mM HEPES-KOH, 5 mM glucose, pH 7.2) and resuspended in assay buffer to OD600=1. 100 microliters of washed cells in assay buffer was then mixed with 100 microliters of assay buffer containing 20 μM NPN in a 96-well optical bottom black plate (Thermo). Two microliters of the test substances were then added, briefly mixed, and then placed in a plate reader to monitor fluorescence (excitation 350 nm, emission 420 nm) at one minute intervals for 10 minutes. Controls containing no cells or water-only were included in the assay. NPN uptake was calculated using the formula below at each time point and averaged over all time-points and three replicates.

[9] = system: Pseudomonas aeruginosa (ATCC #10145); experiment: Checkerboard assay; details: alone, 100-500 ppm; 24 hours of incubation
Method: The checkerboard assay was performed by separately dosing Polyphase PW40 (40% IPBC) and a 20% nanoparticle ZnO dispersion (Sigma #721077) into 100 microliters of Mueller Hinton Broth containing ˜1.0*10^5 CFU/mL of Pseudomonas aeruginosa (ATCC #10145). The plate was then incubated overnight at 37° C. with constant double orbital shaking. The next day, the dispersions were allowed to settle on the bench for 2 hours and the plate was photographed. Growth in this assay was defined as the turbidity of the supernatant.

[10] = system: Pseudomonas aeruginosa (ATCC #10145); experiment: Growth curves (OD600)
Method: To generate growth curves, overnight cultures of Pseudomonas aeruginosa (ATCC #10145) from Plate Count Agar were lifted and resuspended in dH2O and adjusted to OD600=0.01 with sterile Mueller Hinton Broth (MHB). This culture was distributed into wells of an uncovered 96-well plate with the indicated biocides. The OD600 was then measured initially and then every 30′ for 16 hours at 37° C. with constant double orbital shaking. Due to the opacity of the samples dosed with some test compounds, the curves were generated by background subtracting from wells containing sterile MHB and then subtracted from their initial (t=0) measurement.

[11] = Staphylococcus aureus, ATCC6538, read-out: MIC
[12] = Pseudomonas aeruginosa, ATCC10145, 24 h
[13] = Escherichia coli, ATCC11229, read-out: MIC
[14] = Joint Compound, lowest concentration free of detectable bacterial growth 7 days following the 4th inoculation
[15] = 96 well microbroth dilution, MHB, 24 hours of incubation

Q: For `CCCCC(O)CO` (stereo not shown) [1,2-hexanediol], which “Pass Level” value [1] is on record?
A: Not Effective

Q: And the “Pass Level (ppm a.i.)” value [1]?
A: > 12,000 ppm a.i.

Q: And the MIC ([2]; Pseudomonas, read-out: MIC)?
A: 5000 µg/mL

Q: What about the MIC (E. aerogenes ATCC #13048) of the same molecule?
A: 10000 µg/mL

Q: What about the MIC ([3]; read-out: MIC) of the same molecule?
A: 6000 µg/mL

Q: And the MIC (S. aureus ATCC #6538; [11])?
A: 24000 µg/mL

Q: And the MIC [4, 12]?
A: 6000 µg/mL

Q: And the MIC (E. coli ATCC #11229; [13])?
A: 6000 µg/mL

Q: And the MIC ([5]; Burkholderia, 24 h)?
A: 5000 µg/mL

Q: What about the MIC (Bacillus sp. Troy JZ14; Bacillus, read-out: MIC) of the same molecule?
A: 10000 µg/mL

Q: What about the “Pass Level” value [6, 14] of the same molecule?
A: 1.2 % w/w

Q: What about the “Pass Level (ppm a.i.)” value [6, 14] of the same molecule?
A: 11,880 ppm a.i.

Q: What about the “Killing of Pseudomonas (kill curve)” value ([7]; 1,2-hexanediol added to IPBC/ZnO (FIG. 5)) of the same molecule?
A: fully capable of killing Pseudomonas

Q: What does the source list for `CCCCCCOCCOCCO` [Hexyl Carbitol]?
A: MIC [2]: 5929 ppm; MIC [3]: 1482 ppm; MIC (S. aureus ATCC #6538): 11857 ppm; MIC [4, 15]: 11856 ppm; MIC (E. coli ATCC #11229): 11857 ppm; MIC [5, 15]: 1853 ppm; MIC (Bacillus sp. Troy JZ14): 4447 ppm; Improvement in the bacterial resistance of paint containing IPBC/ZnO ([6]; paint challenge testing (Table A9)): highly similar performance as 1,2-hexanediol; Membrane disruption potential against Pseudomonas (NPN assay) [8]: highest membrane disruption potential

Q: For `CCCCCCOCCO` [Hexyl Cellosolve], which “Membrane disruption potential against Pseudomonas (NPN assay)” value [8] is on record?
A: highest membrane disruption potential

Q: `CCCCNC(=O)OCC#CI` [IPBC, 3-iodoprop-2-yn-1-yl butylcarbamate] was tested. Which MIC ([2]; Pseudomonas, read-out: MIC) did it give?
A: 300 µg/mL

Q: And the MIC (E. aerogenes ATCC #13048)?
A: 1000 µg/mL

Q: What about the MIC ([3]; read-out: MIC) of the same molecule?
A: 11 µg/mL

Q: What about the MIC (S. aureus ATCC #6538; [11]) of the same molecule?
A: 450 µg/mL

Q: What about the MIC [4, 12] of the same molecule?
A: ≥ 400 µg/mL

Q: What about the MIC (E. coli ATCC #11229; [13]) of the same molecule?
A: 2400 µg/mL

Q: What about the MIC ([5]; Burkholderia, 24 h) of the same molecule?
A: 63 µg/mL

Q: What about the MIC (Bacillus sp. Troy JZ14; Bacillus, read-out: MIC) of the same molecule?
A: 9 µg/mL

Q: And the “Kill curve CFU/mL” value ([7]; 0 hrs)?
A: 5.40E+06 CFU/mL and 7.00E+06 CFU/mL

Q: What about the “Kill curve CFU/mL” value ([7]; 2 hrs) of the same molecule?
A: 7.10E+06 CFU/mL and 7.30E+06 CFU/mL

Q: And the “Kill curve CFU/mL” value ([7]; 24 hrs)?
A: 1.33E+10 CFU/mL and 1.45E+10 CFU/mL

Q: And the “Kill curve CFU/mL” value ([7]; 48 hrs)?
A: 4.90E+09 CFU/mL and 3.80E+09 CFU/mL

Q: What about the “Turbidity of wells (growth)” value [9] of the same molecule?
A: turbid

Q: And the Pseudomonas growth ([10]; 400 ppm IPBC (0.1% w/w Polyphase PW40) with ≥0.25 mM PAβN, 16 hours)?
A: complete growth inhibition

Q: What about the Pseudomonas growth ([10]; 400 ppm alone, 16 hours) of the same molecule?
A: growth

Q: And the Pseudomonas growth ([10]; IPBC with PAβN in the presence of 1 mM MgCl2)?
A: weaker IPBC potentiation

Q: What about the Pseudomonas growth ([10]; control, without PAβN (FIG. 1C)) of the same molecule?
A: no Pseudomonas inhibition
